In series [1] the test system is F11 cells transfected with V642I-APP, NL-APP, M146L-PS1 or N141I-PS2 cDNA. The class given is cell-based, rat/mouse hybrid. To be noted: each of V642I-APP, read-out: IC50 of suppression of neuronal cell death by FAD genes. An excerpt: F11 cells, the hybrid of a rat embryonic-day-13 primary cultured primary neuron and a mouse neuroblastoma cell, are one of the best models for primary cultured neurons as they carry representative characteristics of primary neurons, such as generation of action potentials without differentiation by NGF [22]. They have been used in various studies of is neuronal functions. Using these cells, the underlying mechanisms for cytotoxicity by V642I-APP have well been analyzed. Cytotoxicity by V642 mutants of APP has also been confirmed in multiple different systems. F11 cells were grown in Ham's F-12 (GibcoBRL, Gaithersburg, Md.) plus 18% fetal bovine serum (FBS; Hyclone, Logan, Utah) and antibiotics, as described previously. F11 cells (7×10^4 cell/well in a 6-well plate cultured in Ham's F-12 plus 18% FBS for 12-16 hr) were transfected with plasmids encoding FAD genes by lipofection [FAD cDNA 2 μg, LipofectAMINE 4 μl, PLUS reagent 8 μl (GibcoBRL)] in the absence of serum for 3 hr, and were incubated with Ham's F-12 plus 18% FBS for 2 hr. Then, culture media were changed to Ham's F-12 plus 10% FBS with or without HN peptides, and cells were cultured for an additional 67 hr. Seventy-two hr after transfection, cell mortality was measured by Trypan blue exclusion assay, performed as follows. Cells were suspended by pipetting gently, and 50 μl of 0.4% (finally 0.08%) Trypan blue solution (Sigma, St Louis, Mo.) was mixed with 200 μl of the cell suspension at room temperature. Stained cells were counted within 3 min after the mixture with Trypan blue solution.

Series [2] deals with Aβ and four FAD genes (V642I-APP, NL-APP, M146L-PS1, and N141I-PS2). The class given is cell-based. To be noted: Table 5, marked *. The method, boiled down: (§1)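 Rat/mouse hybrid F11 neuronal cells were transfected with FAD genes, then cultured 67 h with or without HN peptides; mortality was scored by Trypan blue exclusion 72 h post-transfection. Mouse primary cortical neurons were preincubated 16 h with HN, exposed to 25 μM Aβ for 72 h, and viability measured by WST-8 (OD450) and Calcein-AM fluorescence.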

A short description of series [3]: Apparent stability of peptides in the culture medium. The format is physicochemical. The following applies: 72-hr incubation of 10 μM peptides in the cultured medium; data not shown. An excerpt:
The Ser^7 residue plays a role different from that of Ser^14. S7A substitution nullified the action of HN, while Ser^7 racemation had no influence. […] Given the fact that EFLIVIKS or EFLIVKS is the established amino acid sequence to form a dimer and that EFLIVIKS alone had no cytoprotective action, it is most likely that Ser^7 is essential for HN to self-dimerize and that self-dimerization of HN is essential for the action of HN. […] This level of stability alterations could not account for the drastic potentiation of the rescue action by the fusion with EFLIVIKS.

Series [4] deals with T1, HN (self-dimerization) (Homo sapiens, UniProt Q8IVG9).
T1 construct: host or cells: chemically synthesised peptide (no expression host)
In words: Dimerization experiment (Ni-bead precipitation of FLAG-tagged peptide by (His)6-tagged peptide). The class given is binding. The following applies: excess amounts of competitor. The protocol: (§2) Synthetic (His)6-tagged HN derivative peptides (1 nmol) was incubated with 20 μl of Ni-NTA agarose (QIAGEN, Hilden, Germany) in a total volume of 0.5 ml of buffer A [20 mM Tris/HCl (pH8.0) and 1 mM DTT] for 1 hr at 4° C. and washed once with buffer B [20 mM Tris/HCl (pH 7.4), 1 mM DTT, and 150 mM NaCl]. Synthetic FLAG-tagged peptides (1 nmol) were mixed with the beads immobilizing (His)6-tagged peptides in a total volume of 0.5 ml of buffer B for 2 hr at 4° C. on a rotating shaker, and washed three times with buffer B. The washed beads were mixed with 20 μl of 2× sampling buffer [100 mM Tris/HCl (pH6.8), 200 mM DTT, 4% (w/v) SDS, 0.2% bromophenol blue, and 20% (v/v) glycerol] and boiled. The supernatant was submitted to Tris/Tricine SDS-PAGE, followed by immunoblotting analysis with 1/5000 anti-FLAG monoclonal antibody M2 (Sigma).

The subject of series [5] is primary cultured neurons treated with 25 μM Aβ1-43. To be noted: as described previously [16]; read-out: IC50 of the HNG action against Aβ1-43-induced neuronal death; cited from earlier work.
Series [6] has the same test system. The format is cell-based. To be noted: 25 μM Aβ1-43, primary neurons. The method, boiled down:
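Mouse primary cortical neurons (serum-free, N2 supplement), mostly at 5×10^4 cells/well, were preincubated 16 h ± 10 μM HN. They were then exposed to 25 μM Aβ ± 10 μM HN for 72 h at 37 °C. Viability was measured 2 h after adding WST-8 (OD450) and Calcein-AM (ex 485/em 535 nm).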

In series [7] the test system is Aβ and V642I-APP. The class given is cell-based. To be noted: Table 5, marked **. The method, boiled down: as §1
Series [8] addresses T2, HN (self-dimerization) (Homo sapiens, UniProt Q8IVG9, S7A).
T2 construct: host or cells: chemically synthesised peptide (no expression host)
T2 sequence (Q8IVG9 with tags, fused parts or gaps S7A): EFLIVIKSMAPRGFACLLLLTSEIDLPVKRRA
Nature of the series: Dimerization experiment (Ni-bead precipitation of FLAG-tagged peptide by (His)6-tagged peptide). The format is binding. The following applies: excess amounts of competitor. The procedure:
as §2

Series [9] concerns the target T3, (His)6-(S7A)HN.
T3 construct: Synthetic peptide, immobilised on Ni-NTA agarose; also called His-S7A
T3 peptide: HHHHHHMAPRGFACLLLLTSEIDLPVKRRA
Nature of the series: Ni-bead pull-down, anti-FLAG immunoblot. The protocol:
as §2, with “(His)₆-tagged” for “(His)6-tagged”
Synthetic (His)₆-HN was mixed with synthetic HN-FLAG, and precipitated by Ni-beads. The precipitate was examined with an anti-FLAG antibody for HN-FLAG. […] Under the same conditions, (S7A)HN-FLAG was not precipitated by (His)₆-(S7A)HN. EF-(S7A)HN-FLAG was precipitated by (His)₆-EF-(S7A)HN as efficiently as HN-FLAG precipitation by (His)₆-HN.

We go through three molecules from patent US20050233413A1, “Neuroprotective polypeptides and methods of use” (priority 2002, published 2005).

Where no end group is shown, it is not given here.

T1 sequence (Q8IVG9 whole entry): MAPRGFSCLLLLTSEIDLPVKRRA

What is called IC50 is the point on the concentration scale where inhibition reaches its midpoint. Turning to “MAPRGFSCLLLLTGEIDLPVKRRA [HNG, reference compound]”, the IC50 in series [1] is approximately 0.03 nM; in series [5], approximately 0.5 nM. Besides, the “Full protection (minimal concentration that exerted full cytoprotection)” value in series [2] is reported as “˜10 nM”. In series [3], the “amount of peptide relative to the amount at time zero” value is recorded as “about ⅔”. Also, in series [4], the “effect of excess competitor on HN-FLAG precipitation by (His)6-HN” value is “abolished”.
Regarding “EFLIVIKS [dimerization peptide, reference compound]”, the “concentration up to which no neuroprotection against Aβ1-43 was exerted” value in [6] is more than 100 µM. In addition, in series [7], the Full protection entry is “NE** (the corresponding peptide had no cytoprotective effect at 10 μM)” and the IC50 is more than 10 µM. For the same molecule, the “effect of excess competitor on HN-FLAG precipitation by (His)6-HN” value in [4] is recorded as “could not interfere”. Also, in [8], the “effect of excess competitor on EF-(S7A)HN-FLAG precipitation by (His)6-EF-(S7A)HN” value is listed as “blocked”.

B1: (S7A)HN-DYKDDDDK (S7A-FLAG) (peptide)
peptide: MAPRGFACLLLLTSEIDLPVKRRADYKDDDDK
notes: Synthetic C-terminally FLAG-tagged peptide; also called (S7A)HN-FLAG
Regarding B1, the binding result in series [9] is “no binding (tested: 1 nmol of each peptide in 0.5 ml)”.
